Test results reported in patent publication US6652890B2, “Tea catechins as cancer specific proliferation inhibitors” (Purdue Research Foundation, priority 1999, dated 2003).
Values joined by “and” are separate entries in the source; they are usually repeats but may differ in a detail not shown here. Equal entries are not always repeated. Where two headings read alike, the source gives them in different places.

Tests used:
[1] = target: T1, NADH oxidase of plasma membranes from MCF-10A human mammary epithelial (non-cancer) cells (Homo sapiens, UniProt Q8TC92); assay: NADH oxidase activity of isolated plasma membrane vesicles; assay type: biochemical; details: EGCg dose-response, FIG. 2A
T1 construct: endogenous in cells; host or cells: MCF-10A plasma membrane vesicles
T1 sequence (Q8TC92 1-643): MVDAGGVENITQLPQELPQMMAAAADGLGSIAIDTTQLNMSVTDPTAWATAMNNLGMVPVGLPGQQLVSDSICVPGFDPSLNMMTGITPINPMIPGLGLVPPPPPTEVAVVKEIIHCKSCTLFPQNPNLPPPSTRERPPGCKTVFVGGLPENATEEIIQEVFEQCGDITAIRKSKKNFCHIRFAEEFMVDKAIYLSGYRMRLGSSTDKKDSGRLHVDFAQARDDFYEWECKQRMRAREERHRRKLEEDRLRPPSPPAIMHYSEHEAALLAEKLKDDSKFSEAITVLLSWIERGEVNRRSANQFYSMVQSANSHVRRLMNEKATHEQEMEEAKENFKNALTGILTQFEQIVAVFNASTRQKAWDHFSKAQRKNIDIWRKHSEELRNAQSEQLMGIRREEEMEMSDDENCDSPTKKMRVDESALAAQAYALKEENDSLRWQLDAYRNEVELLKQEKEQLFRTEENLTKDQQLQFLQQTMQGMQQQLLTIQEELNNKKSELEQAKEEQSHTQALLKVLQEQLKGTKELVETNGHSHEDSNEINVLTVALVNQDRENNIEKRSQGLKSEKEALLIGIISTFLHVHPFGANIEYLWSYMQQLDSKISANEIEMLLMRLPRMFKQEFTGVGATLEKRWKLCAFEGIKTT
Procedure: Cultured cells were collected by centrifugation for 6-15 min at 175-1000×g. The cell pellets were resuspended in 0.2 mM EDTA in 1 mM NaHCO3 in an approximate ratio of 1 ml per 10^8 cells and incubated on ice for 10-30 min to swell the cells. […] To estimate breakage, the cells were monitored by light microscopy before and after homogenization. At least 90% cell breakage without breakage of nuclei was achieved routinely.
The homogenates were centrifuged for 10 min at 175×g to remove unbroken cells and nuclei and the supernatant was centrifuged a second time at 1.4×10^6 g·min (e.g., 1 h at 23,500×g) to prepare a plasma membrane-enriched microsome fraction. The supernatant was discarded and the pellets were resuspended in 0.2 M potassium phosphate buffer in a ratio of ˜1 ml per pellet from 5×10^8 cells. […] The purity of the plasma membrane was determined to be >90% by electron microscope morphometry. […]
NADH oxidase activity was determined as the disappearance of NADH measured at 340 nm in a reaction mixture containing 25 mM Tris-Mes buffer (pH 7.2), 1 mM KCN to inhibit low levels of mitochondrial oxidase activity, and […] at 37° C. with stirring. Activity was measured using a Hitachi U3210 or SLM Aminco DW2000 spectrophotometer with continuous recording over two intervals of 5 min each. […]

[2] = target: T2, tNOX activity of intact 4T1 mouse mammary cells (Mus musculus, UniProt Q8R0Z2); assay: Inhibition of tNOX (NADH oxidase) activity of intact 4T1 cells; assay type: cell-based
T2 construct: endogenous in cells; host or cells: 4T1 mouse mammary carcinoma cells (intact)
T2 sequence (Q8R0Z2 1-598): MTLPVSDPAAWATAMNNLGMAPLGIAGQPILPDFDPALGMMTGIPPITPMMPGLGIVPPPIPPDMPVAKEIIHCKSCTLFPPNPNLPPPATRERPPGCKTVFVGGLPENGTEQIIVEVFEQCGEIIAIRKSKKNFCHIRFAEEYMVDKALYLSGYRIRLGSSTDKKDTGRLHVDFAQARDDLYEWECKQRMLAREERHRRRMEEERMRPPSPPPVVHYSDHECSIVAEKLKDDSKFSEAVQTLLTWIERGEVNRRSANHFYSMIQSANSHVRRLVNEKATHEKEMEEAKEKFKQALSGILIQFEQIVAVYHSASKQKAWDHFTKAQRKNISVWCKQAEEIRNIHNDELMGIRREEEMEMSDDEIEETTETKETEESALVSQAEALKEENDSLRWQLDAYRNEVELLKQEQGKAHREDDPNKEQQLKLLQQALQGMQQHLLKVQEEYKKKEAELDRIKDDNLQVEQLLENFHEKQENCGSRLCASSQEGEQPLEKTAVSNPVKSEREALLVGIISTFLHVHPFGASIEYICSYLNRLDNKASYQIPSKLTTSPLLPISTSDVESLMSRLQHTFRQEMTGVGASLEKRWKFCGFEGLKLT
Procedure: A mouse mammary tumor subpopulation line 4T1 arising from a BALB/cf C3H mouse was grown in DME-10, Dulbecco's modified Eagle's medium supplemented with 5% fetal calf serum, 5% newborn calf serum, 1 mM mixed non-essential amino acids, 2 mM L-glutamine, penicillin (100 units/ml), and streptomycin (100 μg/ml) (Miller et al., 1987, Brit. J. Can. 56:561-569 and Miller et al., 1990, Invasion Metastasis 10:101-112).
NADH oxidase activity was determined as the disappearance of NADH measured at 340 nm in a reaction mixture containing 25 mM Tris-Mes buffer (pH 7.2), 1 mM KCN, and 150 μM NADH at 37° C. Activity was measured using a Hitachi U3210 spectrophotometer with stirring and continuous recording over two intervals of 5 min each. A millimolar extinction coefficient of 6.22 was used to determine specific activity.
NADH oxidase activity was determined as the disappearance of NADH measured at 340 nm in a reaction mixture containing 25 mM Tris-Mes buffer (pH 7.2), 1 mM KCN, and 150 μM NADH at 37° C. Activity was measured at 340 nm with reference at 430 nm using an SLM Aminco DW-2000 spectrophotometer (Milton Roy, Rochester, N.Y.) in the dual beam mode of operation with stirring and continuous recording over two intervals of 5 min each. A millimolar extinction coefficient of 6.22 was used to determine specific activity.

Effect on NADH oxidase activity [1]: without effect
tNOX inhibition by EGCg, EC>90 ([2]; EC concentration 0 M): 10^−7 M
tNOX inhibition by EGCg, EC>90 ([2]; EC concentration 10^−4 M): 10^−8 M
tNOX inhibition by EGCg, EC>90 ([2]; EC concentration 10^−6 M): 10^−8 M
tNOX inhibition by EGCg, EC>90 ([2]; EC concentration 10^−8 M): 10^−7 M
EC50 ([2]; in the presence of 10^−4 M EC, read-out: EC50 for inhibition of the drug-responsive component of the plasma membrane NADH oxidase): 2 nM
EC50 ([2]; read-out: tNOX inhibition by EGCg, EC50, EC concentration 0 M): ~10 nM and 10 nM
EC50 ([2]; read-out: tNOX inhibition by EGCg, EC50, EC concentration 10^−4 M): 0.5 nM
EC50 ([2]; read-out: tNOX inhibition by EGCg, EC50, EC concentration 10^−6 M): 1 nM
EC50 ([2]; read-out: tNOX inhibition by EGCg, EC50, EC concentration 10^−8 M): 10 nM
Enhancement of the efficacy of EGCg inhibition ([2]; with both 10^−6 and 10^−4 M EC): ≥ 10 fold
Substance: (−) - epigallocatechin gallate [EGCg]
